Read-outs that look alike come from different tables or passages of the source.
Columns and labels:
CDK9/CycT1 = target: T1, CDK9/CycT1 (Homo sapiens, UniProt P50750); assay: CDK9/CycT1 kinase assay (TR-FRET, 10 μM ATP); assay type: biochemical; settings: Method 1a
T1 construct: Recombinant full-length His-tagged human CDK9 and CycT1; His; purchased Invitrogen PV4131; host or cells: insect cells
Source text: 1a. CDK9/CyeT1 Kinase Assay:
CDK9/CycT1-inhibitory activity of compounds of the present invention was quantified employing the CDK9/CycT1 TR-FRET assay as described in the following paragraphs:
Recombinant full-length His-tagged human CDK9 and CycT1, expressed in insect cells and purified by Ni-NTA affinity chromatography, were purchased from Invitrogen (Cat. No PV4131). As substrate for the kinase reaction biotinylated peptide biotin-Ttds-[…] (C-terminus in amid form) was used which can be purchased e.g. form the company JERINI Peptide Technologies (Berlin, Germany). For the assay 50 nl of a 100 fold concentrated solution of the test compound in DMSO was pipetted into a black low volume 384 well microtiter plate (Greiner Bio-One, Frickenhausen, Germany), 2 μl of a solution of CDK9/CycT1 in aqueous assay buffer [50 mM Tris/HCl pH 8.0, 10 mM MgCl2, 1.0 mM dithiothreitol, 0.1 mM sodium ortho-vanadate, 0.01% (v/v) Nonidet-P40 (Sigma)] were added and the mixture was incubated for 15 min at 22° C. to allow pre-binding of the test compounds to the enzyme before the start of the kinase reaction.
The resulting mixture was incubated 1 h at 22° C. to allow the formation of complex between the phosphorylated biotinylated peptide and the detection reagents. Subsequently the amount of phosphorylated substrate was evaluated by measurement of the resonance energy transfer from the Eu-chelate to the streptavidine-XL.

[1] = test system: HeLa, human cervical tumour cells; assay: Proliferation assay, HeLa (crystal violet); assay type: cell-based; settings: 4 days, read-out: Inhibition of HeLa cell proliferation IC50
Description: (§1) Cultivated tumour cells (HeLa, human cervical tumour cells, ATCC CCL-2; NCI-H460, human non-small cell lung carcinoma cells, ATCC HTB-177; A2780, human ovarian carcinoma cells, ECACC #93112519; DU 145, hormone-independent human prostate carcinoma cells, ATCC HTB-81; HeLa-MaTu-ADR, multidrug-resistant human cervical carcinoma cells, EPO-GmbH Berlin; Caco-2, human colorectal carcinoma cells, ATCC HTB-37; B16F10, mouse melanoma cells, ATCC CRL-6475) were plated at a density of 5,000 cells/well (DU145, HeLa-MaTu-ADR), 3,000 cells/well (NCI-H460, HeLa), 2,500 cells/well (A2780), 1,500 cells/well (Caco-2), or 1,000 cells/well (B16F10) in a 96-well multititer plate in 200 μL of their respective growth medium supplemented 10% fetal calf serum. After 24 hours, the cells of one plate (zero-point plate) were stained with crystal violet (see below), while the medium of the other plates was replaced by fresh culture medium (200 μl), to which the test substances were added in various concentrations (0 μM, as well as in the range of 0.001-10 μM; the final concentration of the solvent dimethyl sulfoxide was 0.5%). The cells were incubated for 4 days in the presence of test substances. Cell proliferation was determined by staining the cells with crystal violet: the cells were fixed by adding 20 μl/measuring point of an 11% glutaric aldehyde solution for 15 minutes at room temperature. After three washing cycles of the fixed cells with water, the plates were dried at room temperature. The cells were stained by adding 100 μl/measuring point of a 0.1% crystal violet solution (pH 3.0). After three washing cycles of the stained cells with water, the plates were dried at room temperature. The dye was dissolved by adding 100 μl/measuring point of a 10% acetic acid solution. The extinction was determined by photometry at a wavelength of 595 nm. The change of cell number, in percent, was calculated by normalization of the measured values to the extinction values of the zero-point plate (=0%) and the extinction of the untreated (0 μm) cells (=100%). The IC50 values (inhibitory concentration at 50% of maximal effect) were determined by means of a 4 parameter fit. Non-adherent MOLM-13 human acute myeloid leukemia cells (DSMZ ACC 554) were seeded at a density of 5,000 cells/well in a 96-well multititer plate in 100 μL of growth medium supplemented 10% fetal calf serum. After 24 hours, cell viability of one plate (zero-point plate) was determined with the Cell Titre-Glo Luminescent Cell Viability Assay (Promega), while 50 μL of test compound containing medium was added to the wells of the other plates (final concentrations in the range of 0.001-10 μM and DMSO controls; the final concentration of the solvent dimethyl sulfoxide was 0.5%). Cell viability was assessed after 72-hour exposure with the Cell Titre-Glo Luminescent Cell Viability Assay (Promega).

[2] = test system: NCI-H460, human non-small cell lung carcinoma cells; assay: Proliferation assay, NCI-H460 (crystal violet); assay type: cell-based; settings: NCI-H460, 4 days, read-out: Inhibition of NCI-H460 cell proliferation IC50
Description: as §1

[3] = test system: B16F10, mouse melanoma cells; assay: Proliferation assay, B16F10 (crystal violet); assay type: cell-based; settings: B16F10, 4 days, read-out: Inhibition of B16F10 cell proliferation IC50
Description: as §1

T1 sequence (P50750 whole entry): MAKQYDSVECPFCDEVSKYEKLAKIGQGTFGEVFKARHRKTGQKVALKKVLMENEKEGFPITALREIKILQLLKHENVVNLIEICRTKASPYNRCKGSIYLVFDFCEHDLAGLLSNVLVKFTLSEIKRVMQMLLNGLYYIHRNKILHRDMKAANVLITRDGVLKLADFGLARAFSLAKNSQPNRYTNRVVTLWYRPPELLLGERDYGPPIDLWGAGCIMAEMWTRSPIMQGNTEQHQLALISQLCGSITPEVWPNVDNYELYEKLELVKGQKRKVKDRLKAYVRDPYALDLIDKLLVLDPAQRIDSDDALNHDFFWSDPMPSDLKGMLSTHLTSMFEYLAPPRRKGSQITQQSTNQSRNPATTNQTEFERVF
T1 sequence (O60563 whole entry partner): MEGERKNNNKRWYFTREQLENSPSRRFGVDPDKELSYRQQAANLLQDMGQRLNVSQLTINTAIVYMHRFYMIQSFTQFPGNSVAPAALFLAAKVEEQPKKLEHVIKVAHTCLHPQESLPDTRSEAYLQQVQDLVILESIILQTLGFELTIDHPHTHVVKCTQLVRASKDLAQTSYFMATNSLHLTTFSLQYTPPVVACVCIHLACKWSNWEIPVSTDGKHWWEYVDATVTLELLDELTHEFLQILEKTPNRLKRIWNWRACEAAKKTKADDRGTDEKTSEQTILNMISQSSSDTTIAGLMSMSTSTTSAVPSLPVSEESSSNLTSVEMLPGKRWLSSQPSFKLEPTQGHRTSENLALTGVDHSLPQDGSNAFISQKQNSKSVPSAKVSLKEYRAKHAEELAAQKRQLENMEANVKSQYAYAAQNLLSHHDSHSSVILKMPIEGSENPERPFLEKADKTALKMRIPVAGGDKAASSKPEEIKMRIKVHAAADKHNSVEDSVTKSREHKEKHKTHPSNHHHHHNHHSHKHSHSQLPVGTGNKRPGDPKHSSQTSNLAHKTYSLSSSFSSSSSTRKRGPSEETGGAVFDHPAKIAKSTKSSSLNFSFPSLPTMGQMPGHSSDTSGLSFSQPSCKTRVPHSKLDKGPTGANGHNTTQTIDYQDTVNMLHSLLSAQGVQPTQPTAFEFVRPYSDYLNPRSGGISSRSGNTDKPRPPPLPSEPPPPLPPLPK

IC50 (CDK9/CycT1)	IC50 ([1]; Homo sapiens, 96 h)	IC50 ([2]; Homo sapiens, NCI-H460, 96 h)	IC50 ([3]; Mus musculus, B16-F10, 96 h)	IC50 [2]	IC50 [3]	IC50 [1]	SMILES
1 nM	100 nM	110 nM	180 nM				COc1cc(F)ccc1-c1cc(Nc2cc(CS(C)(=O)=NC(C)=O)ccn2)ncc1F (racemic) [Example 13, (rac)-N-{[(2-{[5-Fluoro-4-(4-fluoro-2-methoxyphenyl)pyridin-2-yl]amino}pyridin-4-yl)methyl](methyl)oxido-λ^6-sulfanylidene}acetamide]
0.9 nM	46 nM	45 nM	67 nM				COc1cc(F)ccc1-c1cc(Nc2cc(CS(C)(=N)=O)cc(F)n2)ncc1F (racemic) [Example 17, (rac)-5-Fluoro-4-(4-fluoro-2-methoxyphenyl)-N-{6-fluoro-4-[(S-methylsulfonimidoyl)methyl]pyridin-2-yl}pyridin-2-amine]
3 nM	43 nM	120 nM	150 nM				CCOc1cc(F)ccc1-c1cc(Nc2cc(CS(C)(=N)=O)cc(F)n2)ncc1F (racemic) [Example 26, (rac)-4-(2-Ethoxy-4-fluorophenyl)-5-fluoro-N-{6-fluoro-4-[(S-methylsulfonimidoyl)methyl]pyridin-2-yl}pyridin-2-amine]
3 nM	100 nM	120 nM	120 nM				CCS(=N)(=O)Cc1ccnc(Nc2cc(-c3ccc(F)cc3OC)c(F)cn2)c1 (racemic) [Example 30, (rac)-N-{4-[(S-Ethylsulfonimidoyl)-methyl]pyridin-2-yl}-5-fluoro-4-(4-fluoro-2-methoxyphenyl)pyridin-2-amine]
4 nM	31 nM	39 nM	63 nM				COc1cc(F)ccc1-c1cc(Nc2cc(CS(C)(=O)=NC#N)ccn2)ncc1F (single isomer, unassigned) [Example 10, {[(2-{[5-Fluoro-4-(4-fluoro-2-methoxyphenyl)pyridin-2-yl]amino}pyridin-4-yl)methyl](methyl)oxido-λ^6-sulfanylidene}cyanamide]
18 nM	32 nM	33 nM	43 nM				COc1cc(F)ccc1-c1cc(Nc2cc(CS(C)(=O)=NC(=O)C(F)(F)F)cc(C(F)(F)F)n2)ncc1F (single isomer, unassigned; (+)) [Example 24, (+)-2,2,2-Trifluoro-N-[{[2-{[5-fluoro-4-(4-fluoro-2-methoxyphenyl)pyridin-2-yl]amino}-6-(trifluoromethyl)-pyridin-4-yl]methyl}(methyl)oxido-λ^6-sulfanylidene]acetamide]
5 nM	99 nM	190 nM	150 nM				CCOc1cc(F)ccc1-c1cc(Nc2cc(CS(C)(=N)=O)cc(F)n2)ncc1F (single isomer, unassigned; (+)) [Example 28, (+)-4-(2-Ethoxy-4-fluorophenyl)-5-fluoro-N-{6-fluoro-4-[(S-methylsulfonimidoyl)methyl]pyridin-2-yl}pyridin-2-amine]

The next lines start with the compound.

SMILES	IC50 (CDK9/CycT1)	IC50 ([1]; Homo sapiens, 96 h)	IC50 ([2]; Homo sapiens, NCI-H460, 96 h)	IC50 ([3]; Mus musculus, B16-F10, 96 h)	IC50 [2]	IC50 [3]	IC50 [1]
CCNC(=O)N=S(C)(=O)Cc1ccnc(Nc2cc(-c3ccc(F)cc3OC)c(F)cn2)c1 (racemic) [Example 12, (rac)-1-Ethyl-3-{[(2-{[5-fluoro-4-(4-fluoro-2-methoxyphenyl)pyridin-2-yl]amino}pyridin-4-yl)methyl](methyl)oxido-λ^6-sulfanylidene}urea]	2 nM	34 nM	100 nM	130 nM			
CCOC(=O)N=S(C)(=O)Cc1cc(Nc2cc(-c3ccc(F)cc3OC)c(F)cn2)nc(OC)c1 (racemic) [Example 15, (rac)-ethyl{[(2-{[5-fluoro-4-(4-fluoro-2-methoxyphenyl)pyridin-2-yl]amino}-6-methoxypyridin-4-yl)methyl](methyl)oxido-λ^6-sulfanylidene}carbamate]	2 nM	40 nM	32 nM	45 nM			
COc1cc(F)ccc1-c1cc(Nc2cc(CS(C)(=O)=NC(=O)C(F)(F)F)cc(F)n2)ncc1F (racemic) [Example 18, (rac)-2,2,2-Trifluoro-N-{[(2-fluoro-6-{[5-fluoro-4-(4-fluoro-2-methoxyphenyl)pyridin-2-yl]amino}pyridin-4-yl)methyl](methyl)oxido-λ^6-sulfanylidene}acetamide]	3 nM	61 nM	110 nM	68 nM			
COc1cc(F)ccc1-c1cc(Nc2cc(CS(C)(=N)=O)cc(C(F)(F)F)n2)ncc1F (racemic) [Example 21, (rac)-5-Fluoro-4-(4-fluoro-2-methoxyphenyl)-N-{4-[(S-methylsulfonimidoyl)methyl]-6-(trifluoromethyl)pyridin-2-yl}pyridin-2-amine]	2 nM	29 nM	33 nM	38 nM			
CCOc1cc(F)ccc1-c1cc(Nc2cc(CS(C)(=O)=NC(=O)C(F)(F)F)cc(F)n2)ncc1F (racemic) [Example 27, (rac)-N-{[(2-{[4-(2-Ethoxy-4-fluoro-phenyl)-5-fluoropyridin-2-yl]amino}-6-fluoropyridin-4-yl)methyl]-(methyl)oxido-λ^6-sulfanylidene}-2,2,2-trifluoroacetamide]	9 nM	100 nM	120 nM	150 nM			
COc1cc(F)ccc1-c1cc(Nc2cc(CS(C)(=N)=O)cc(C(F)(F)F)n2)ncc1F (single isomer, unassigned; (+)) [Example 22, (+)-5-Fluoro-4-(4-fluoro-2-methoxyphenyl)-N-{4-[(S-methylsulfonimidoyl)methyl]-6-(trifluoromethyl)pyridin-2-yl}pyridin-2-amine]	2 nM	30 nM	34 nM	51 nM			
COc1cc(F)ccc1-c1cc(Nc2cc(CS(C)(=N)=O)cc(F)n2)ncc1F (single isomer, unassigned; (-)) [Example 20, (−)-5-Fluoro-4-(4-fluoro-2-methoxyphenyl)-N-{6-fluoro-4-[(S-methylsulfonimidoyl)methyl]pyridin-2-yl}pyridin-2-amine]	2 nM	30 nM			100 nM	54 nM	
COc1cc(F)ccc1-c1cc(Nc2cc(CS(C)(=O)=NC(=O)C(F)(F)F)cc(C(F)(F)F)n2)ncc1F (single isomer, unassigned; (-)) [Example 25, (−)-2,2,2-Trifluoro-N-[{[2-{[5-fluoro-4-(4-fluoro-2-methoxyphenyl)pyridin-2-yl]amino}-6-(trifluoromethyl)-pyridin-4-yl]methyl}(methyl)oxido-λ^6-sulfanylidene]acetamide]	15 nM				36 nM	50 nM	35 nM
